{"source": "the supplement of paper PMC9663587", "key": {"[1]": {"compound": "CCN1CCN(Cc2ccc(Nc3ncc(F)c(-c4cc(F)c5nc(C)n(C(C)C)c5c4)n3)nc2)CC1", "test": "increase in dead-cell fraction, 72 h; higher = more death;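 also: breast cancer cell lines in 384-well plates, stained with Hoechst plus LIVE/DEAD far red dye and imaged, cells above an LDR intensity threshold counted dead, Hoechst-negative corpses included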"}, "Flavopiridol": {"compound": "CN1CC[C@H](c2c(O)cc(O)c3c(=O)cc(-c4ccccc4Cl)oc23)[C@H](O)C1 [Flavopiridol]", "test": "increase in dead-cell fraction, 72 h; higher = more death"}, "YKL-5-124": {"compound": "C=CC(=O)Nc1ccc(C(=O)Nc2[nH]nc3c2CN(C(=O)N[C@H](CN(C)C)c2ccccc2)C3(C)C)cc1 [YKL-5-124]", "test": "GR value, 72 h; higher = faster growth (1 = untreated, <0 = killing);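 also: breast cancer and non-malignant breast epithelial lines, nine half-log doses, viable cells counted by Hoechst and LIVE/DEAD dye imaging versus time-zero plates and DMSO controls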"}, "BSJ-03-123": {"compound": "CC(=O)c1c(C)c2cnc(Nc3ccc(N4CCN(CCOCCOCCOCCNC(=O)COc5cccc6c5C(=O)N(C5CCC(=O)NC5=O)C6=O)CC4)cn3)nc2n(C2CCCC2)c1=O [BSJ-03-123]", "test": "GR value, 72 h; higher = faster growth (1 = untreated, <0 = killing)"}, "[2]": {"compound": "CC(=O)c1c(C)c2cnc(Nc3ccc(N4CCNCC4)cn3)nc2n(C2CCCC2)c1=O", "test": "GR value, 72 h; higher = faster growth (1 = untreated, <0 = killing)"}, "[3]": {"compound": "CCN1CCN(Cc2ccc(Nc3ncc(F)c(-c4cc(F)c5nc(C)n(C(C)C)c5c4)n3)nc2)CC1", "test": "GR value, 72 h; higher = faster growth (1 = untreated, <0 = killing)"}}, "data": [{"cell line": "HCC1569", "values": [{"measurement": "increase in dead-cell fraction", "setting": "[1]; 0.001 µM", "result": -0.0009}, {"measurement": "increase in dead-cell fraction", "setting": "[1]; 0.003162 µM", "result": 0.0054}, {"measurement": "increase in dead-cell fraction", "setting": "[1]; 0.01 µM", "result": 0.0105}, {"measurement": "increase in dead-cell fraction", "setting": "[1]; 0.03162 µM", "result": 0.0034}, {"measurement": "increase in dead-cell fraction", "setting": "[1]; 0.1 µM", "result": -0.0024}, {"measurement": "increase in dead-cell fraction", "setting": "[1]; 0.3162 µM", "result": -0.0047}, {"measurement": "increase in dead-cell fraction", "setting": "[1]; 1 µM", "result": 0.0011}, {"measurement": "increase in dead-cell fraction", "setting": "[1]; 3.162 µM", "result": 0.0024}, {"measurement": "increase in dead-cell fraction", "setting": "[1]; 10 µM", "result": 0.0361}, {"measurement": "increase in dead-cell fraction", "setting": "Flavopiridol; 0.0001 µM", "result": -0.0248}, {"measurement": "increase in dead-cell fraction", "setting": "Flavopiridol; 0.0003162 µM", "result": 0.001}, {"measurement": "increase in dead-cell fraction", "setting": "Flavopiridol; 0.001 µM", "result": 0.0101}, {"measurement": "increase in dead-cell fraction", "setting": "Flavopiridol; 0.003162 µM", "result": 0.0075}, {"measurement": "increase in dead-cell fraction", "setting": "Flavopiridol; 0.01 µM", "result": -0.0095}, {"measurement": "increase in dead-cell fraction", "setting": "Flavopiridol; 0.03162 µM", "result": -0.0064}, {"measurement": "increase in dead-cell fraction", "setting": "Flavopiridol; 0.1 µM", "result": 0.0067}, {"measurement": "increase in dead-cell fraction", "setting": "Flavopiridol; 0.3162 µM", "result": 0.0986}, {"measurement": "increase in dead-cell fraction", "setting": "Flavopiridol; 1 µM", "result": 0.102}, {"measurement": "GR value", "setting": "YKL-5-124; 0.001 µM", "result": 0.373, "unit": "GR"}, {"measurement": "GR value", "setting": "YKL-5-124; 0.003162 µM", "result": 0.541, "unit": "GR"}, {"measurement": "GR value", "setting": "YKL-5-124; 0.01 µM", "result": 0.302, "unit": "GR"}, {"measurement": "GR value", "setting": "YKL-5-124; 0.03162 µM", "result": 0.277, "unit": "GR"}, {"measurement": "GR value", "setting": "YKL-5-124; 0.1 µM", "result": 0.443, "unit": "GR"}, {"measurement": "GR value", "setting": "YKL-5-124; 0.3162 µM", "result": 0.124, "unit": "GR"}, {"measurement": "GR value", "setting": "YKL-5-124; 1 µM", "result": 0.175, "unit": "GR"}, {"measurement": "GR value", "setting": "YKL-5-124; 3.162 µM", "result": 0.0783, "unit": "GR"}, {"measurement": "GR value", "setting": "YKL-5-124; 10 µM", "result": -0.266, "unit": "GR"}, {"measurement": "GR value", "setting": "BSJ-03-123; 0.001 µM", "result": 1.01, "unit": "GR"}, {"measurement": "GR value", "setting": "BSJ-03-123; 0.003162 µM", "result": 0.944, "unit": "GR"}, {"measurement": "GR value", "setting": "BSJ-03-123; 0.01 µM", "result": 1.04, "unit": "GR"}, {"measurement": "GR value", "setting": "BSJ-03-123; 0.03162 µM", "result": 0.922, "unit": "GR"}, {"measurement": "GR value", "setting": "BSJ-03-123; 0.1 µM", "result": 1.08, "unit": "GR"}, {"measurement": "GR value", "setting": "BSJ-03-123; 0.3162 µM", "result": 0.841, "unit": "GR"}, {"measurement": "GR value", "setting": "BSJ-03-123; 1 µM", "result": 0.5, "unit": "GR"}, {"measurement": "GR value", "setting": "BSJ-03-123; 3.162 µM", "result": 0.693, "unit": "GR"}, {"measurement": "GR value", "setting": "BSJ-03-123; 10 µM", "result": -0.102, "unit": "GR"}, {"measurement": "GR value", "setting": "[2]; 0.0003162 µM", "result": 0.957, "unit": "GR"}, {"measurement": "GR value", "setting": "[2]; 0.001 µM", "result": 0.991, "unit": "GR"}, {"measurement": "GR value", "setting": "[2]; 0.003162 µM", "result": 1.03, "unit": "GR"}, {"measurement": "GR value", "setting": "[2]; 0.01 µM", "result": 1.05, "unit": "GR"}, {"measurement": "GR value", "setting": "[2]; 0.03162 µM", "result": 0.928, "unit": "GR"}, {"measurement": "GR value", "setting": "[2]; 0.1 µM", "result": 0.938, "unit": "GR"}, {"measurement": "GR value", "setting": "[2]; 0.3162 µM", "result": 1.06, "unit": "GR"}, {"measurement": "GR value", "setting": "[2]; 1 µM", "result": 0.932, "unit": "GR"}, {"measurement": "GR value", "setting": "[2]; 3.162 µM", "result": 1.05, "unit": "GR"}, {"measurement": "GR value", "setting": "[3]; 0.001 µM", "result": 0.941, "unit": "GR"}, {"measurement": "GR value", "setting": "[3]; 0.003162 µM", "result": 0.932, "unit": "GR"}, {"measurement": "GR value", "setting": "[3]; 0.01 µM", "result": 0.955, "unit": "GR"}, {"measurement": "GR value", "setting": "[3]; 0.03162 µM", "result": 1.05, "unit": "GR"}, {"measurement": "GR value", "setting": "[3]; 0.1 µM", "result": 0.985, "unit": "GR"}, {"measurement": "GR value", "setting": "[3]; 0.3162 µM", "result": 1.07, "unit": "GR"}, {"measurement": "GR value", "setting": "[3]; 1 µM", "result": 0.822, "unit": "GR"}, {"measurement": "GR value", "setting": "[3]; 3.162 µM", "result": 0.639, "unit": "GR"}, {"measurement": "GR value", "setting": "[3]; 10 µM", "result": 0.0637, "unit": "GR"}]}]}
